# Results reported in patent US12240862B2, “Inhibitors of peptidylarginine deiminases” (Gilead Sciences, Inc., priority 2020, dated 2025).
# Biological target: T1, human PAD4 (Homo sapiens, UniProt Q9UM07)
# T1 construct: human PAD4 (NM_012387), A2P663, was PCR amplified; His-SUMO (N, cleaved yes); made in house; host or cells: E. coli BL21(DE3)
# Assay: In vitro PAD4 BAEE biochemical assay
# Details: human PAD4, BAEE substrate; 5 nM PAD4, 2 mM calcium chloride, 3 mM BAEE; geometric mean of multiple experiments
# Method in brief: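 Tag-free recombinant hPAD4 (5 nM), 2 mM CaCl2, 3 mM BAEE, 50 mM MOPS pH 7.6, 2 mM DTT; 30 min compound preincubation, 2 h reaction, all 25 °C. EDTA quench; ammonia read via o-phthalaldehyde amine coupling, 1 h.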
# T1 sequence (Q9UM07 2-663): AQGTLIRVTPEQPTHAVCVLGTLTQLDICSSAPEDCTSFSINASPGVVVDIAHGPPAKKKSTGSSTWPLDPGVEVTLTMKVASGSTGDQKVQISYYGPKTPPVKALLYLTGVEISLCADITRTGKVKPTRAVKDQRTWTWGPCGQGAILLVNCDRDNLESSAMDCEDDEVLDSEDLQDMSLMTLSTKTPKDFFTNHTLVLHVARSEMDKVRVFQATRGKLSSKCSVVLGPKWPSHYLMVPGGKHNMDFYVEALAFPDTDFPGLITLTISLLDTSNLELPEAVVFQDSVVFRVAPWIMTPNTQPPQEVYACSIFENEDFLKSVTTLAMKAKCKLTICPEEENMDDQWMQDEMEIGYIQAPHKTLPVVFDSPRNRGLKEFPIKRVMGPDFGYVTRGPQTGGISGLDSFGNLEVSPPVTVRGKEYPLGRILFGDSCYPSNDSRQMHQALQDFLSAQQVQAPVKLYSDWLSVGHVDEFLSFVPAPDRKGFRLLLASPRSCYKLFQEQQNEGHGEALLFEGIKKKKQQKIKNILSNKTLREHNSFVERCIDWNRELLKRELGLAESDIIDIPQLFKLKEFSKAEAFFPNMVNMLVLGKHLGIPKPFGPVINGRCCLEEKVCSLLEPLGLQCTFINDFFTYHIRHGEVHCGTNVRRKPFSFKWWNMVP
row,IC50 [nM],Compound
1,30.4,"COc1cc(C(=O)N2[C@H]3CC[C@@H]2[C@H](N)C3)cc2nc(-c3cc4ccc([C@@H](C)NC(=O)[C@H]5CC5(F)F)nc4n3CC3CC3)c(C)n12 [Example 131, (1~{R})-~{N}-[(1~{R})-1-[2-[7-[(1~{R},2~{R},4~{S})-2-amino-7-azabicyclo[2.2.1]heptane-7-carbonyl]-5-methoxy-3-methylimidazo [1,2-a]pyridin-2-yl]-1-(cyclopropylmethyl)pyrrolo [2,3-b]pyridin-6-yl]ethyl]-2,2-difluorocyclopropane-1-carboxamide]"
2,1770,"Cc1c(-c2cc3ccc(N(C(F)F)S(C)(=O)=O)nc3n2CC2CC2)nc2cc(C(=O)N3CCC[C@@H](N)C3)cc(C(F)F)n12 [Example 423, ~{N}-[2-[7-[(3~{R})-3-aminopiperidine-1-carbonyl]-5-(difluoromethyl)-3-methylimidazo[1,2-a]pyridin-2-yl]-1-(cyclopropylmethyl)pyrrolo [2,3-b]pyridin-6-yl]-~{N}-(difluoromethyl) methanesulfonamide]"
3,1360,COc1cc(C(=O)N2[C@@H]3CC[C@H]2[C@@H](N)[C@@H](OC)C3)cc2nc(-c3cc4ccc([C@@H](C)NC(=O)C56CC(F)(C5)C6)nc4n3CC3CC3)c(C)n12 [Example 182]
4,84.4,"COc1cc(C(=O)N2[C@H]3CC[C@@H]2[C@H](N)C3)cc2nc(-c3cc4ccc([C@@H](C)NC(=O)N(C)Cc5ccccc5)nc4n3CC3CC3)c(C)n12 [Example 240, 3-[(1~{R})-1-[2-[7-[(1~{R},2~{R},4~{S})-2-amino-7-azabicyclo[2.2.1]heptane-7-carbonyl]-5-methoxy-3-methylimidazo [1,2-a]pyridin-2-yl]-1-(cyclopropylmethyl)pyrrolo [2,3-b]pyridin-6-yl]ethyl]-1-benzyl-1-methylurea]"
5,274,"COc1cc(C(=O)N2CCC[C@@H](N)C2)cc2nc(-c3cc4ccc([C@@H](C)N(C)C(=O)c5ccccc5)nc4n3CC3CC3)c(C)n12 [Example 186, ~{N}-[(1~{R})-1-[2-[7-[(3~{R})-3-aminopiperidine-1-carbonyl]-5-methoxy-3-methylimidazo [1,2-a]pyridin-2-yl]-1-(cyclopropylmethyl)pyrrolo [2,3-b]pyridin-6-yl]ethyl]-~{N}-methylbenzamide]"
6,14100,"COc1cc(C(=O)N2CCC3(CCCN3)CC2)cc2nc(-c3cc4ccc(N(C(F)F)S(C)(=O)=O)nc4n3CC3CC3)c(C)n12 [Example 342, ~{N}-[1-(cyclopropylmethyl)-2-[7-(1,8-diazaspiro[4.5]decane-8-carbonyl)-5-methoxy-3-methylimidazo[1,2-a]pyridin-2-yl]pyrrolo[2,3-b]pyridin-6-yl]-~{N}-(difluoromethyl) methanesulfonamide]"
7,45,"COc1cc(C(=O)N2[C@H]3CC[C@@H]2[C@H](N)C3)cc2nc(-c3cc4ccc([C@@H](C)NC(=O)NC5CCOCC5)nc4n3CC3CC3)c(C)n12 [Example 214, 1-[(1~{R})-1-[2-[7-[(1~{R},2~{R},4~{S})-2-amino-7-azabicyclo[2.2.1]heptane-7-carbonyl]-5-methoxy-3-methylimidazo [1,2-a]pyridin-2-yl]-1-(cyclopropylmethyl)pyrrolo [2,3-b]pyridin-6-yl]ethyl]-3-(oxan-4-yl)urea]"

row,Compound,IC50 [nM]
1,"CCC(C)(O)c1ccc2cc(-c3nc4cc(C(=O)N5[C@H]6CC[C@@H]5[C@H](N)C6)cc(OC)n4c3C)n(CC3CC3)c2n1 (stereo partly drawn) [Example 572, [(1~{R},2~{R},4~{S})-2-amino-7-azabicyclo [2.2.1]heptan-7-yl]-[2-[1-(cyclopropylmethyl)-6-(2-hydroxybutan-2-yl)pyrrolo [2,3-b]pyridin-2-yl]-5-methoxy-3-methylimidazo[1,2-a]pyridin-7-yl]methanone]",152
2,"3-[(1~{R})-1-[2-[7- [(1~{R},2~{R},4~{S})-2- amino-7- azabicyclo[2.2.1]heptane-7- carbonyl]-3-cyclopropyl-5- methoxyimidazo [1,2-a]pyridin-2-yl]-1- (cyclopropylmethyl)pyrrolo [2,3-b]pyridin-6-yl]ethyl]-1- [(6-methoxypyridin-2- yl)methyl]-1-methylurea [Example 219]",124
